Experimental data from PMC8881610 (Nature Communications, 2022).

Columns and labels:
GCGR = GCGR (Homo sapiens, UniProt P47871); test: Whole-cell binding assay, competition with 125I-GCG; set-up: V5 (C); 6×His (C); expressed in transfected cells; host or cells: CHO-K1; conditions: Fig. 7c receptor binding profile, n = 3 in duplicate
Protocol: (§1) Human embryonic kidney 293 cells containing SV40 large T-antigen (HEK293T) were cultured in DMEM (Gibco) supplemented with 10% (v/v) fetal bovine serum (FBS, Gibco), 1 mM sodium pyruvate (Gibco) and 100 units/mL penicillin and 100 μg/mL streptomycin at 37 °C in 5% CO2. Chinese hamster ovary (CHO-K1) cells were cultured in F-12 (Gibco) containing 10% FBS, 100 units/mL penicillin and 100 μg/mL streptomycin at 37 °C in 5% CO2. For cAMP and receptor expression assays, HEK293T cells were seeded into 6-well cell culture plates at a density of 7 × 10^5 cells per well. After overnight incubation, cells were transfected with GIPR, GLP-1R or GCGR construct using Lipofectamine 2000 or Lipofectamine 3000 transfection reagent (Invitrogen). For whole-cell binding assay, CHO-K1 cells were seeded into 96-well fibronectin-treated cell culture plates at a density of 3 × 10^4 cells per well. After overnight incubation, cells were transfected with GIPR, GLP-1R or GCGR construct using Lipofectamine 2000 transfection reagent (Invitrogen). Following 24 h culturing, the transfected cells were ready for use.
For GLP-1R and GCGR, CHO-K1 cells (30,000 cells/well) were seeded into Isoplate-96 plates and incubated for 24 h at 37 °C in 5% CO2. The WT or mutant constructs were transiently transfected using Lipofectamine 2000 transfection reagent as previous described. They were then washed twice using F-12 with 0.1% BSA or 0.1% casein, 33 mM HEPES, and incubated for 2 h at 37 °C. […] Cells were washed three times with ice-cold PBS and lysed in PBS with 1% Triton X-100, 20 mM Tris-HCl. After addition of scintillation cocktail (PerkinElmer), radioactivity (CPM) was counted on a MicroBeta^2 microplate counter (PerkinElmer). Data were normalized to the WT response and analyzed using three-parameter logistic equation.

GIPR = molecular target: T1, GIPR (Homo sapiens, UniProt P48546); test: Whole-cell binding assay, competition with 125I-GIP1-42; set-up: acylated tirzepatide to the full-length or modified; Flag; expressed in transfected cells; conditions: Fig. 7c receptor binding profile, n = 3 in duplicate
T1 sequence (P48546 22-466): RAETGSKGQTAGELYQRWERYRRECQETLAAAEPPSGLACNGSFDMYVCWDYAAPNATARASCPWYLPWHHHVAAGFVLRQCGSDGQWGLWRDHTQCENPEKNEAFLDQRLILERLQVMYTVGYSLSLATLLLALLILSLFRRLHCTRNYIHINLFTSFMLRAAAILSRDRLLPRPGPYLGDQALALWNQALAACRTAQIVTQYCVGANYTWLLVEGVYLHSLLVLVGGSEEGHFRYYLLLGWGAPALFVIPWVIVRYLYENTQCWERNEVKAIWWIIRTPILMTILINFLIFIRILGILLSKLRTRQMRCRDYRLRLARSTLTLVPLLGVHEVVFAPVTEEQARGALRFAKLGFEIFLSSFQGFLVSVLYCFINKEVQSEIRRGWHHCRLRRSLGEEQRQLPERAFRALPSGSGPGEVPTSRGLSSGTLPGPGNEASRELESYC
Protocol: as §1
For GIPR, CHO-K1 cells were cultured in F-12 medium with 10% FBS and seeded at a density of 30,000 cells/well in Isoplate-96 plates (PerkinElmer). The WT or mutant GIPR was transiently transfected using Lipofectamine 2000 transfection reagent as previous described. They were then washed twice using F-12 with 0.1% BSA or 0.1% casein, 33 mM HEPES, and incubated for 2 h at 37 °C. […] Following incubation, cells were washed three times with ice-cold PBS and lysed by addition of 50 μL lysis buffer (PBS supplemented with 20 mM Tris-HCl, 1% Triton X-100, pH 7.4). Fifty µL of scintillation cocktail (OptiPhase SuperMix, PerkinElmer) were added and the plates were subsequently counted for radioactivity (counts per minute, CPM) in a MicroBeta^2 microplate counter (PerkinElmer).

[1] = clinical trial outcome; Drugs@FDA, ChemBL, ClinicalTrials.gov; cited from earlier work
GLP-1R = GLP-1R (Homo sapiens, UniProt P43220); test: cAMP accumulation assay, GLP-1R WT, mutant or modified constructs; assay type: cell-based; set-up: Flag; expressed in transfected cells; host or cells: HEK293T; conditions: GLP-1R; HEK293T, n = 4; SEM
Protocol: as §1
The human GLP-1R was modified with its native signal sequence (M1-P23) replaced by the HA signal peptide to facilitate receptor expression. To obtain a GLP-1R–Gs complex with good homogeneity and stability, we used the NanoBiT tethering strategy, in which the C terminus of GLP-1R was directly attached to LgBiT subunit followed by a TEV protease cleavage site and a double MBP tag. […] The constructs were cloned into both pcDNA3.1 and pFastBac vectors for functional assays in mammalian cells and protein expression in insect cells, respectively. Other constructs including the full-length and various mutants of human GLP-1R were cloned into pcDNA3.1 vector for cAMP accumulation and whole-cell binding assays.
For GIPR, GLP-1R and GCGR, multi-targeting agonist stimulated cAMP accumulation was measured by a LANCE Ultra cAMP kit (PerkinElmer). After 24 h culture, the transfected cells were seeded into 384-well microtiter plates at a density of 3,000 cells per well in HBSS supplemented with 5 mM HEPES, 0.1% (w/v) BSA or 0.1% (w/v) casein and 0.5 mM 3-isobutyl-1-methylxanthine. The cells were stimulated with different concentrations of peptide agonists for 40 min at RT. Eu-cAMP tracer and ULight^TM-anti-cAMP were then diluted by cAMP detection buffer and added to the plates separately to terminate the reaction. Plates were incubated at RT for 1 h and the fluorescence intensity measured at 620 nm and […] by an EnVision multilabel plate reader (PerkinElmer).

GCGR, sequence (P47871 26-477): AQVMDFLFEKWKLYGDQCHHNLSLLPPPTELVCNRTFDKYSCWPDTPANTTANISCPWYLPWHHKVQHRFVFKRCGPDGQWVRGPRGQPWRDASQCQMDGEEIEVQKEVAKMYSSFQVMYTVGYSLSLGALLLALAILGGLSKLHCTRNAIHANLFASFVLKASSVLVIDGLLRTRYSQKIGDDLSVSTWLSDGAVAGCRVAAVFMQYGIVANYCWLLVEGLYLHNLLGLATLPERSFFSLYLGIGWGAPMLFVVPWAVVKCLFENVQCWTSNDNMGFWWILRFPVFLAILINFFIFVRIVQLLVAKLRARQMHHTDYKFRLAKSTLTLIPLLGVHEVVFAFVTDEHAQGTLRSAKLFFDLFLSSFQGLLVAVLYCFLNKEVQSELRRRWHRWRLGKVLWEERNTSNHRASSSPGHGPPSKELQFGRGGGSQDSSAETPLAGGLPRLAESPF
GLP-1R, sequence (P43220 24-463): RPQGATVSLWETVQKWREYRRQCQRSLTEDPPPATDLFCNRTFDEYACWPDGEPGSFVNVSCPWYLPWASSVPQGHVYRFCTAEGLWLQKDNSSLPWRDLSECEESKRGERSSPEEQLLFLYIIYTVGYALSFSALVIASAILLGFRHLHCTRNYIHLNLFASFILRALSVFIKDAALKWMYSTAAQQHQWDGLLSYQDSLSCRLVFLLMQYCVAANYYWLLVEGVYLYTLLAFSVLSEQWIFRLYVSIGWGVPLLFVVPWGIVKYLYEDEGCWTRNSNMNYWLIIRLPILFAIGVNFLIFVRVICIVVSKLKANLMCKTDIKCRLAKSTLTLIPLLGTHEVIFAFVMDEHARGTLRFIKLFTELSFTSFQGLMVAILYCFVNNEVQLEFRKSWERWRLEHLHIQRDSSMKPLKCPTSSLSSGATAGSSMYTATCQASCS

Compound	GCGR (pIC50 ± S.E.M.) (GCGR)	GIPR (pIC50 ± S.E.M.) (GIPR)	cAMP Emax ± S.E.M. (GLP-1R)	cAMP pEC50 ± S.E.M. (GLP-1R)	Body weight [1]	Fasting plasma glucose [1] [mg/dL]	HAb1c [1] [%]
Dulaglutide: approved GLP-1R mono-agonist	–	–	–	–	-0.20 kg or %	-34.20	-1.45
Exenatide: approved GLP-1R mono-agonist	–	–	–	–	-0.65 kg or %	-34.20	-1.21

The next lines start with results.

GCGR (pIC50 ± S.E.M.) (GCGR)	GIPR (pIC50 ± S.E.M.) (GIPR)	cAMP Emax ± S.E.M. (GLP-1R)	cAMP pEC50 ± S.E.M. (GLP-1R)	Compound	Body weight [1]	Fasting plasma glucose [1] [mg/dL]	HAb1c [1] [%]
N.B.	–	–	–	CC[C@H](C)[C@H](NC(=O)[C@H](CO)NC(=O)[C@H](Cc1ccc(O)cc1)NC(=O)[C@H](CC(=O)O)NC(=O)[C@H](CO)NC(=O)[C@@H](NC(=O)[C@H](Cc1ccccc1)NC(=O)[C@@H](NC(=O)CNC(=O)[C@H](CCC(=O)O)NC(=O)[C@H](C)NC(=O)[C@@H](N)Cc1ccc(O)cc1)[C@@H](C)O)[C@@H](C)CC)C(=O)N[C@@H](C)C(=O)N[C@@H](CCSC)C(=O)N[C@@H](CC(=O)O)C(=O)N[C@@H](CCCCN)C(=O)N[C@H](C(=O)N[C@@H](Cc1c[nH]cn1)C(=O)N[C@@H](CCC(N)=O)C(=O)N[C@@H](CCC(N)=O)C(=O)N[C@@H](CC(=O)O)C(=O)N[C@@H](Cc1ccccc1)C(=O)N[C@H](C(=O)N[C@@H](CC(N)=O)C(=O)N[C@@H](Cc1c[nH]c2ccccc12)C(=O)N[C@@H](CC(C)C)C(=O)N[C@@H](CC(C)C)C(=O)N[C@@H](C)C(=O)N[C@@H](CCC(N)=O)C(=O)N[C@@H](CCCCN)C(=O)NCC(=O)N[C@@H](CCCCN)C(=O)N[C@@H](CCCCN)C(=O)N[C@@H](CC(N)=O)C(=O)N[C@@H](CC(=O)O)C(=O)N[C@@H](Cc1c[nH]c2ccccc12)C(=O)N[C@@H](CCCCN)C(=O)N[C@@H](Cc1c[nH]cn1)C(=O)N[C@@H](CC(N)=O)C(=O)N[C@H](C(=O)N[C@H](C(=O)N[C@@H](CCC(N)=O)C(=O)O)[C@@H](C)O)[C@@H](C)CC)C(C)C)[C@@H](C)CC [GIP1-42, glucose-dependent insulinotropic polypeptide]	–	–	–
N.B.	N.B.	–	–	CCCCCCCCCCCCCCCC(=O)N[C@@H](CCC(=O)NCCCC[C@H](NC(=O)[C@H](C)NC(=O)[C@H](C)NC(=O)[C@H](CCC(N)=O)NC(=O)CNC(=O)[C@H](CCC(=O)O)NC(=O)[C@H](CC(C)C)NC(=O)[C@H](Cc1ccc(O)cc1)NC(=O)[C@H](CO)NC(=O)[C@H](CO)NC(=O)[C@@H](NC(=O)[C@H](CC(=O)O)NC(=O)[C@H](CO)NC(=O)[C@@H](NC(=O)[C@H](Cc1ccccc1)NC(=O)[C@@H](NC(=O)CNC(=O)[C@H](CCC(=O)O)NC(=O)[C@H](C)NC(=O)[C@@H](N)Cc1c[nH]cn1)[C@@H](C)O)[C@@H](C)O)C(C)C)C(=O)N[C@@H](CCC(=O)O)C(=O)N[C@@H](Cc1ccccc1)C(=O)N[C@H](C(=O)N[C@@H](C)C(=O)N[C@@H](Cc1c[nH]c2ccccc12)C(=O)N[C@@H](CC(C)C)C(=O)N[C@H](C(=O)N[C@@H](CCCNC(=N)N)C(=O)NCC(=O)N[C@@H](CCCNC(=N)N)C(=O)NCC(=O)O)C(C)C)[C@@H](C)CC)C(=O)O [Liraglutide]	–	–	–
N.B.	N.B.	100.13 ± 1.66 % max GLP-1(7-36)NH2	11.02 ± 0.05	Albiglutide: approved GLP-1 analog, GLP-1R mono-agonist	-0.04 kg or %	-30.00	-1.3
